Data reported in patent US7012098B2, “Inhibitors of inducible nitric oxide synthase for chemoprevention and treatment of cancers” (Pharmacia Corporation, priority 2001, dated 2006).
Where a name gives a salt, the structure may show the parent alone. Read-outs that look alike come from different tables or passages of the source.

How the values were obtained:
[1] = system: AOM-induced colonic ACF; assay: Chemopreventive effects in rats with azoxymethane-induced aberrant crypt foci; type: in vivo, male F344 rats; conditions: for Foci containing 1 Crypt / Foci containing 2 Crypt / Foci containing 3 Crypt / Foci containing ≧4 Crypts / Total ACF incidence: AOM-treated male F344 rats, Mean ± SEM; for inhibition at 320 ppm: feed or water, positive control
Text: In Vivo Assay of Chemopreventive Effects of Therapeutic Compounds in Rats with Azoxymethane-induced Aberrant Crypt Foci
(§1) Azoxymethane (AOM) (CAS:25843-45-2) was purchased from Ash Stevens (Detroit, Mich.). iNOS and COX-2 selective inhibitors were provided by Pharmacia, (St. Louis, […].). Sulindac, a non-selective inhibitor of COX-isoforms and a known inhibitor of colon carcinogenesis, was supplied by the Chemoprevention Branch of the National Cancer Institute (Bethesda, Md.). Weanling male F344 rats were purchased from Charles River Breeding Laboratories (Kingston, N.Y.). All ingredients of the semipurified diet were obtained from Dyets Inc., (Bethlehem, Pa.) and were stored at 4° C. until the experimental diets were prepared. The rats were held in quarantine for 1 week and had access to modified AIN-76A semipurified control diet (Reddy et al., Cancer Res. 50: 2562-2568, 1990, which is herein incorporated by reference.). They were randomly distributed into various dietary groups and were transferred to an animal holding room where they were housed, three rats to a plastic cage, under controlled conditions of a 12-h light/12-h dark cycle, 50% relative humidity and 21° C. room temperature. Experimental diets were prepared by mixing chemopreventive agents with modified AIN-76A control diet.
To quantify aberrant crypt foci, after a minimum of 24 h in buffered formalin, the colons were cut into 2-cm segments starting at the anus; for the next 5-10 min they were placed in a Petri dish containing 0.2% methylene blue in Krebs Ringer solution. They were then placed, mucosal side up, on a microscope slide and observed through a light microscope. Aberrant crypt foci were recorded according to standard procedures that are being used routinely in our laboratory (Rao et al., Carcinogenesis 21: 617-21, 2000; Rao et al., Cancer Res. 53:4182-88, 1993, which are herein incorporated by reference.). […] The parameters used to assess the aberrant crypts were their occurrence and multiplicity. Crypt multiplicity was determined as the number of crypts in each focus and categorized as containing up to 3, or 4 or more aberrant crypts/focus.

[2] = system: NOS; assay: Colonic mucosal NOS activity after dietary treatment; type: in vivo, male F344 rats; conditions: 500 ppm in diet; AOM-treated rats, colonic mucosa; Mean ± SEM
Experimental: In Vivo Assay of Modulation of Colonic Mucosal Activities of NOS and COX isoforms by iNOS and COX-2 Inhibitors
NOS and iNOS activities were determined in colonic samples as prepared and described above. Conversion of L-arginine to L-citrulline was measured by a modification of an earlier described method (Rao et al, Carcinogenesis 21, supra; Ambs et al., Cancer Res. 58:334-41, 1998, which is herein incorporated by reference). The assay was carried out by adding 100 μg sample protein to 150 μl of assay buffer [50 mM HEPES, 1 mM DTT, 1 mM MgCl2, 5 mg/L pepstatin A, 0.1 mM PMSF, and 3 mg/L aprotinin, pH 7.4] containing 70 μM arginine, 250,000 dpm L-[^3H]-arginine, 2 mM NADPH, 5μM tetrahydro biopterin, 5 μM flavin adenine dinucleotide, and 0.5 mM CaCi2 to measure total NOS activity, or 1 mM EGTA (without calcium) to determine Ca+^2-independent iNOS activity. After 30 min at 37° C., the reaction was stopped with 100 μl of 1M trichloroacetic acid. Then the samples were adjusted to pH 4.6 by adding 500 μl of 20 mM HEPES and loaded on to Dowex AG 50W-X8 resin columns. L-[^3H]-citrulline was eluted and separated on TLC. Radioactivity was counted by a BioScan Radiomatic detector. Results are expressed as pmol L-[^3H]-citrulline released/mg protein/min.

[3] = system: LPS-induced increase in plasma nitrite/nitrate levels; assay: In Vivo Assay, endotoxin-treated rats, plasma nitrite/nitrate; conditions: administered orally
Experimental: Plasma nitrite/nitrate levels can be determined 5 hours post-treatment.

[4] = system: Human Cartilage; assay: Human Cartilage Explant Assay (nitrite production); type: cell-based; conditions: inhibition of nitrite production, IL-1β-induced explants
Experimental: Human Cartilage Explant Assay
Bone pieces are rinsed twice with Dulbecco's Phosphate Buffered Saline (GibcoBRL) and once with Dulbecco's Modified Eagles Medium (GibcoBRL) and placed into a petri dish with phenol red free Minimum Essential Medium (MEM) (GibcoBRL). Cartilage was cut into small explants of approximately 15-45 mg in weight and one or two explants per well are placed into either 96 or 48 well culture plates with 200-500 μL of culture media per well. The culture media was either a custom modification of Minimum Essential Medium(Eagle) with Earle's salts (GibcoBRL) prepared without L-Arginine, without L-Glutamine and without phenol red or a custom modification of serumless Neuman and Tytell (GibcoBRL) medium prepared without L-arginine, without insulin, without ascorbic acid, without L-glutamine and without phenol red. Both are supplemented before use with 100 μM L-Arginine (Sigma), 2 mM L-glutamine, 1X HL-1 supplement (BioWihittaker), […] ascorbic acid (Sigma) and 150 pg/ml recombinant human IL-1β (RD Systems) to induce nitric oxide synthase. Compounds are then added in 10 μL aliquots and the explants incubated at 37° C. with 5% CO2 for 18-24 hours. The day old supernatant is then discarded and replaced with fresh culture media containing recombinant human IL-1? and compound and incubated for another 20-24 hours. […] All samples are done in quadruplicate. Unstimulated controls are cultured in media in the absence of recombinant human IL-1β. IC50 values (Table I) are determined from plotting the percent inhibition of nitrite production at six different concentrations of inhibitor.

[5] = system: azoxymethane-induced colonic aberrant crypt foci; conditions: cited from earlier work; for formation of colonic aberrant crypt foci: male F344 rats
[6] = Body weights and toxicity on experimental diets; type: in vivo, male F344 rats
Text: as §1

[7] = Rattus norvegicus, po, read-out: ED50

## Cc1ccc(-c2cc(C(F)(F)F)nn2-c2ccc(S(N)(=O)=O)cc2)cc1 [Celecoxib, celecoxib]
[1]; 500 ppm in diet
  Foci containing 1 Crypt: 26.8 ± 2.1
  Foci containing 2 Crypt: 27.3 ± 2.0
  Foci containing 3 Crypt: 23.7 ± 2.3
  Foci containing ≧4 Crypts: 23.3 ± 2.7
  Total ACF incidence: 102 ± 7.5
[1]; Rattus norvegicus, 500 ppm, read-out: inhibition of total ACF
  inhibition at 500 ppm: 5 to 20%
[2]
  NOS Activity, NOS: 11.3 ± 2.1 pmoles [^3H]-citrulline/mg pro

## CC(=N)NC/C(F)=C\CC[C@H](N)C(=O)O [Example A, (2S,5E)-2-amino-6-fluoro-7-[(1-iminoethyl)amino]-5-heptenoic acid, dihydrochloride]
[3]; dihydrochloride
  ED50: <0.1 mg/kg

## CC(=N)NC/C(F)=C\CC[C@](C)(N)C(=O)O.Cl.Cl [Example HH, (2S,5E)-2-amino-2-methyl-6-fluoro-7-[(1-iminoethyl)amino]-5-heptenoic acid, dihydrochloride]
[3]; [7]
  ED50: 0.4 mg/kg
[4]; Homo sapiens
  IC50: 0.4 µM

## COC[C@](N)(CSCCNC(C)=N)C(=O)O [Example J, 2-[[[2-[(1-Iminoethyl)amino]ethyl]thio]methyl]-O-methyl-D-serine, dihydrochloride]
[4]
  IC50: 8.2 µM

## CC(=N)NC/C=C\CC[C@](C)(N)C(=O)O.Cl.Cl [Example LL, (2S,5Z)-2-amino-2-methyl-7-[(1-iminoethyl)amino]-5-heptenoic acid, dihydrochloride]
[3]; [7]
  ED50: 0.3 mg/kg
[4]; Homo sapiens
  IC50: 0.8 µM

## Cl.N=C1CCCC[C@H](CCCC[C@@H](N)C(=O)O)N1.O.O.O [Example V, (αR,2S)-α-aminohexahydro-7-imino-1H-azepine-2-hexanoic acid, trihydrate hydrochloride]
[3]; [7]
  ED50: < 3 mg/kg
[4]; Homo sapiens
  IC50: < 10 µM

## Cl.N=C1CCCC[C@@H](CCCC[C@H](N)C(=O)O)N1.O.O.O [Example W, (αS,2R)-α-aminohexahydro-7-imino-1H-azepine-2-hexanoic acid, trihydrate hydrochloride]
[3]; [7]
  ED50: > 10 mg/kg
[4]; Homo sapiens
  IC50: > 30 µM

## N=C1CCCC[C@H](CCCC[C@H](N)C(=O)O)N1 [Example X, (αS,2S)-α-aminohexahydro-7-imino-1H-azepine-2-hexanoic acid, trihydrate hydrochloride]
[4]
  IC50: < 10 µM

## N=C1CCCC[C@H](CCCC[C@H](N)C(=O)O)N1 [Example Z, (αS,2S)-α-aminohexahydro-7-imino-1H-azepine-2-hexanoic acid, trihydrate hydrochloride]
[4]; Homo sapiens
  IC50: < 10 µM

## N=C(N)SCCc1ccc(CCSC(=N)N)cc1 [PBIT]
[5]; laboratory rodents
  azoxymethane-induced colonic aberrant crypt foci development and iNOS activity: prevented

## CC1=C(CC(=O)O)c2cc(F)ccc2/C1=C\c1ccc([S+](C)[O-])cc1 (stereo not shown) [Sulindac]
[1]; 320 ppm in diet
  Foci containing 1 Crypt: 23.3 ± 1.8
  Foci containing 2 Crypt: 28.0 ± 1.5
  Foci containing 3 Crypt: 17.3 ± 1.7
  Foci containing ≧4 Crypts: 16.5 ± 0.9
  Total ACF incidence: 84.9 ± 4.1
[1]; Rattus norvegicus, 320 ppm in diet, read-out: inhibition of multicrypt clusters containing 4 or more aberrant crypts/focus
  inhibition at 320 ppm: 50%
[1]; Rattus norvegicus, 320 ppm in diet, read-out: inhibition of total ACF/colon
  inhibition at 320 ppm: 40%
[6]; rats treated with vehicle or AOM, control vs experimental diets, throughout the study period
  body weights: comparable
[6]; vehicle-treated rats fed the experimental diets
  toxicity or gross changes in the liver, kidney, intestine and lungs: did not produce any toxicity or any gross changes

## COc1ccc2cc(CCC(C)=O)ccc2c1 [nabumetone]
[5]
  formation of colonic aberrant crypt foci: inhibit

## CS(=O)(=O)Nc1ccc([N+](=O)[O-])cc1Oc1ccccc1 [nemisulide]
[5]
  formation of colonic aberrant crypt foci: inhibit
